Data on 29 compounds can be found in patent US11008314B2, “Compounds and methods for modulating interleukin-2-inducible t-cell kinase” (CORVUS PHARMACEUTICALS, INC., priority 2016, dated 2021).

SMILES strings stand for the structures.

Holding throughout (format): biochemical
The target in assay [1] is ITK (Homo sapiens (Human), UniProt Q08881). The assay is described as follows: IC50 against ITK.
Assay [2] deals with TXK (Homo sapiens (Human), UniProt P42681). As to the kind of experiment: IC50 against TXK. Particulars: for TXK/ITK: ratio of TXK IC50 to ITK IC50.
Sequence of TXK (P42681 whole entry, species assumed): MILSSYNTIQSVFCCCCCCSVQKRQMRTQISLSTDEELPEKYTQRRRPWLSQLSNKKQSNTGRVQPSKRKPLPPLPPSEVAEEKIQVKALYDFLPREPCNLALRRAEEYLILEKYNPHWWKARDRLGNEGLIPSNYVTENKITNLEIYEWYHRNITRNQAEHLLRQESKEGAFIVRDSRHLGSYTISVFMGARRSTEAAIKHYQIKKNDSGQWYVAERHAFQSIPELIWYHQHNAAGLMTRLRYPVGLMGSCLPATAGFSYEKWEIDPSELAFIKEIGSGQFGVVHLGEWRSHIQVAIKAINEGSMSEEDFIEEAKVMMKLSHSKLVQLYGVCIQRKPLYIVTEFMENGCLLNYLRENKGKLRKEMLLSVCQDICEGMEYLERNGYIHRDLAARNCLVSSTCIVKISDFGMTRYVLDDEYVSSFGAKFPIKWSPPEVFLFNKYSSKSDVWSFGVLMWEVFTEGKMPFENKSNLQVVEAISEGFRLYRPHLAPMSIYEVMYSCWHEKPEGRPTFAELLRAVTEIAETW
Assay [3] concerns the target BTK (Homo sapiens (Human), UniProt Q06187). The assay is described as follows: IC50 against BTK.
Assay [4] deals with JAK3 (Homo sapiens (Human), UniProt P52333). As to the kind of experiment: IC50 against JAK3.
Sequence of JAK3 (P52333 whole entry, species assumed): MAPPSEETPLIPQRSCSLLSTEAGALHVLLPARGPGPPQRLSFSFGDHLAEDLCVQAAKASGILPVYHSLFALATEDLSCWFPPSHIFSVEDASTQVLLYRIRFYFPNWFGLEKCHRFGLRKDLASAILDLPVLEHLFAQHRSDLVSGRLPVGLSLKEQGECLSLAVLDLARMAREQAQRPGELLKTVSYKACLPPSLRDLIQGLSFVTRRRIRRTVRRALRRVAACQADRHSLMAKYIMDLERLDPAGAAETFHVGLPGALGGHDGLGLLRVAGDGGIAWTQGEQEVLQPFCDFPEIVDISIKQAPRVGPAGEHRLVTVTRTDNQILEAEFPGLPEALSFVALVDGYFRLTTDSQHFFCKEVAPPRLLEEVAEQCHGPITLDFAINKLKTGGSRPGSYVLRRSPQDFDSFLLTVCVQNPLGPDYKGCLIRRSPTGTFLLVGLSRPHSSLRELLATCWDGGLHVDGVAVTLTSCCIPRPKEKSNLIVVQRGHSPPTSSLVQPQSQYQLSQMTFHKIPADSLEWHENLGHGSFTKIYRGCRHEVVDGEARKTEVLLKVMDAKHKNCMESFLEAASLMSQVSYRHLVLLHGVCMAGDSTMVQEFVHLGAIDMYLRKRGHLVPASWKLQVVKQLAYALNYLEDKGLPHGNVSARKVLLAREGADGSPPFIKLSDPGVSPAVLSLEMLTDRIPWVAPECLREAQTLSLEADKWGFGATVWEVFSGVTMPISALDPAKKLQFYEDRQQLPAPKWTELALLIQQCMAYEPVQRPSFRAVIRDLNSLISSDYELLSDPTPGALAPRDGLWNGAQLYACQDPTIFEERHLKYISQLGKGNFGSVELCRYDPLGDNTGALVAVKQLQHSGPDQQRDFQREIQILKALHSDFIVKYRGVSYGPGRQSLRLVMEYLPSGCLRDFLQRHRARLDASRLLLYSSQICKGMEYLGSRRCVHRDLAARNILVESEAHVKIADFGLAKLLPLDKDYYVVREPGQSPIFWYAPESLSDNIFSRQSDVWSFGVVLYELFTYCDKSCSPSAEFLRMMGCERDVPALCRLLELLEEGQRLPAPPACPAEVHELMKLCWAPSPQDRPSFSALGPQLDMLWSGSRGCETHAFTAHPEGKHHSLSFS

One may read the IC50 as the midpoint of a concentration-inhibition curve.

Sequence of ITK (Q08881 whole entry): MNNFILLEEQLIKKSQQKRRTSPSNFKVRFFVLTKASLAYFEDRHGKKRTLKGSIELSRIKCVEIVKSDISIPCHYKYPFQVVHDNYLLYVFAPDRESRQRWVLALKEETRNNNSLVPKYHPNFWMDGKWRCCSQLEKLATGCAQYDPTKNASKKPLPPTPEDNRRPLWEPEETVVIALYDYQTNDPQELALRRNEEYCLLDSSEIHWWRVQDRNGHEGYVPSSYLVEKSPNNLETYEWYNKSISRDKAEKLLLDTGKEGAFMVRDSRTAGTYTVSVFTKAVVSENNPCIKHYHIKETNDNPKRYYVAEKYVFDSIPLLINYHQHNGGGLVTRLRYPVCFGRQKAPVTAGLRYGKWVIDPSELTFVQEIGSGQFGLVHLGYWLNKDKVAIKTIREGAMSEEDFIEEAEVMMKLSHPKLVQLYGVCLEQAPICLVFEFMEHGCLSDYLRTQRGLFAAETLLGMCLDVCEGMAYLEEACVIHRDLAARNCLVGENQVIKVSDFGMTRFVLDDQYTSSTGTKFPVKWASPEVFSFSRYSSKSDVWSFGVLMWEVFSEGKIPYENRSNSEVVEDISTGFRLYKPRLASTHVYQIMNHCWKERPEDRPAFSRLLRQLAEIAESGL
Sequence of BTK (Q06187 whole entry, species assumed): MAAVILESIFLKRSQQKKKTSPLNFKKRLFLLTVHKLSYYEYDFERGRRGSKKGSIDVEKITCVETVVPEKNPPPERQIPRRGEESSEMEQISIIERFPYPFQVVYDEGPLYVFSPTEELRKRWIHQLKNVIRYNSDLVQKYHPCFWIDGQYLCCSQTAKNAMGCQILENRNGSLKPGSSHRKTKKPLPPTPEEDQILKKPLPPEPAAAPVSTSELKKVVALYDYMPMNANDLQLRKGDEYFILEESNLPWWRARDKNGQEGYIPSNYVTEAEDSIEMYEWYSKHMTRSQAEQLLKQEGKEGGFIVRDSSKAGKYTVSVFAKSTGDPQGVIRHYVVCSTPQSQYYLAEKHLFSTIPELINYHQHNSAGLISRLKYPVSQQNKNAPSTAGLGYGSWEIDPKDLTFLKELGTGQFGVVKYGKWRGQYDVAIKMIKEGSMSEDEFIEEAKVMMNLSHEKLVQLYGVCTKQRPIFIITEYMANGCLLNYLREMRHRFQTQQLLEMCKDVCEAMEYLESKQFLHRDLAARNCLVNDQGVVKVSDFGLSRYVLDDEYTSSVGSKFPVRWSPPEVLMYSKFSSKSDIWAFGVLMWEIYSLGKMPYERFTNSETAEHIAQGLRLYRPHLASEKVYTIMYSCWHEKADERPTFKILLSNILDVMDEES

Consider `C=CC(=O)N1CCCN(C(=O)c2cc(Sc3cnc(NC(=O)C4CC4)s3)c(F)cc2C)C[C@H]1C` [Compound 83], for which the IC50 was 10 to 100 nM in assay [1], 1000 to 10000 nM in assay [2], no less than 10000 nM in assay [3] and 1000 to 10000 nM in assay [4]. Also, in assay [2], the TXK/ITK was determined as 45.317.

As for `C=CC(=O)N1CCN(C(=O)c2cc(Sc3cnc(NC(=O)C4CC4)s3)c(C)cc2CC)C[C@H]1CC` [Compound 104], the IC50 was less than 10 nM in assay [1], 10 to 100 nM in assay [2], 100 to 1000 nM in assay [3] and 100 to 1000 nM in assay [4]. In addition, the TXK/ITK in assay [2] was determined as 3.6.

Turning to `C=CC(=O)N1CCN(C(=O)c2cc(Sc3cnc(NC(=O)c4cn(C)cn4)s3)c(C)cc2OC)CC1` [Compound 97], the IC50 in assay [1] is less than 10 nM; in assay [2], 100 to 1000 nM; in assay [3], 100 to 1000 nM; in assay [4], 1000 to 10000 nM. Moreover, in assay [2], the TXK/ITK amounted to 12.995.

For the compound `C=CC(=O)N1CC[C@@H](N(C)C(=O)c2cc(Sc3cnc(NC(=O)C4CC4)s3)c(C)cc2OC)C1` [Compound 27], the IC50 in assay [1], in assay [2], in assay [3] and in assay [4] was less than 10 nM in each case. Moreover, the TXK/ITK in assay [2] is reported as 2.0165.

For the compound `C=CC(=O)N1CCCN(C(=O)c2cc(Sc3cnc(NC(=O)CC)s3)c(C)cc2OC)C[C@H]1C` [Compound 47], the IC50 in assay [1] was 10 to 100 nM; in assay [2], no less than 10000 nM; in assay [3], no less than 10000 nM; in assay [4] it was no less than 10000 nM. Further, in assay [2], the TXK/ITK was 181.42.

Regarding `C=CC(=O)N1CCN(C(=O)c2cc(C(C)c3cnc(Nc4ccccn4)s3)c(C)cc2OC)CC1` (centres unmarked) [Compound 137], the IC50 is less than 10 nM in assay [1], less than 10 nM in assay [2], less than 10 nM in assay [3] and 100 to 1000 nM in assay [4]. The TXK/ITK in assay [2] is 0.93.

In the case of `C=CC(=O)N1CCN(C(=O)c2cc(Sc3cnc(NC(=O)c4ccsc4)s3)c(C)cc2OC)C(C)(C)C1` [Compound 142, N-(5-((5-(4-acryloyl-2,2-dimethylpiperazine-1-carbonyl)-4-methoxy-2-methylphenyl)thio)thiazol-2-yl)thiophene-3-carboxamide], the IC50 in assay [1], in assay [2], in assay [3] and in assay [4] was less than 10 nM each time. Further, in assay [2], the TXK/ITK was 1.00.

`COc1cc(C)c(Sc2cnc(NC(=O)C3CC3)s2)cc1C(=O)N1CCN(C(=O)/C=C/CN(C)C)CC1` [Compound 3]: the IC50 in assay [1] was 10 to 100 nM; in assay [2], 100 to 1000 nM; in assay [3] it was 1000 to 10000 nM; in assay [4], no less than 10000 nM. In assay [2], the TXK/ITK amounted to 5.162.

In the case of `C=CC(=O)N1C[C@H]2CC[C@@H](C1)N2C(=O)c1cc(Sc2cnc(NC(=O)C3CC3)s2)c(C)cc1OC` [Compound 17], the IC50 is less than 10 nM in assay [1], less than 10 nM in assay [2], less than 10 nM in assay [3] and 10 to 100 nM in assay [4]. Besides, the TXK/ITK in assay [2] is listed as 5.4235.

Regarding `C=CC(=O)N1CCCN(C(=O)c2cc(Sc3cnc(NC(=O)C4CC4)s3)c(C)cc2OC)CCC1` [Compound 53], the IC50 was less than 10 nM in assay [1], 100 to 1000 nM in assay [2], 100 to 1000 nM in assay [3] and 1000 to 10000 nM in assay [4].

Take `C=CC(=O)N1CCN(C(=O)c2cc(Sc3cnc(NC(=O)c4cccc(CN(C)C)c4)s3)c(C)cc2OC)C[C@H]1C#N` [Compound 124]: the IC50 in assay [1], in assay [2], in assay [3] and in assay [4] was less than 10 nM each time.

With `C=CC(=O)N1CCN(C(=O)c2cc(Sc3cnc(NC(=O)c4ccsc4)s3)c(C)cc2OC)[C@@H](C)C1` [Compound 144, (S)-N-(5-((5-(4-acryloyl-2-methylpiperazine-1-carbonyl)-4-methoxy-2-methylphenyl)thio)thiazol-2-yl)thiophene-3-carboxamide], the IC50 in assay [1] was less than 10 nM; in assay [2], 10 to 100 nM; in assay [3], 10 to 100 nM; in assay [4], 100 to 1000 nM. Also, in assay [2], the TXK/ITK is on record as 18.84.

For `C=CC(=O)N1CCCN(C(=O)c2cc(Sc3cnc(NC(=O)C4CCN(C)CC4)s3)c(C)cc2OC)CC1` [Compound 37], the IC50 is 100 to 1000 nM in assay [1], no less than 10000 nM in assay [2], no less than 10000 nM in assay [3] and no less than 10000 nM in assay [4]. The TXK/ITK in assay [2] worked out at 46.119.

Regarding `C=CC(=O)N1CCN(C(=O)c2cc(Sc3cnc(NC(=O)c4cccc(CN(C)C)c4)s3)c(C)cc2C)C[C@H]1CC` [Compound 129], the IC50 is less than 10 nM in assay [1], 10 to 100 nM in assay [2], 10 to 100 nM in assay [3] and 100 to 1000 nM in assay [4]. Besides, the TXK/ITK in assay [2] came out at 46.0.

With `C=CC(=O)N1CCN(C(=O)c2cc(Sc3cnc(NC(=O)C4CC4)s3)c(C)cc2OC)C[C@H]1CC` [Compound 42], the IC50 was less than 10 nM in assay [1], 10 to 100 nM in assay [2], 1000 to 10000 nM in assay [3] and 1000 to 10000 nM in assay [4]. The TXK/ITK in assay [2] amounted to 10.152.

For the compound `C=CC(=O)N1CCN(C(=O)c2cc(Sc3cnc(Nc4ccccn4)s3)c(C)cc2OC)[C@@H](C)C1` [Compound 151, (S)-1-(4-(2-methoxy-4-methyl-5-((2-(pyridin-2-ylamino)thiazol-5-yl)thio)benzoyl)-3-methylpiperazin-1-yl)prop-2-en-1-one], the IC50 is less than 10 nM in assay [1], less than 10 nM in assay [2], 10 to 100 nM in assay [3] and 10 to 100 nM in assay [4]. The TXK/ITK in assay [2] stood at 6.43.

In the case of `C=CC(=O)N1CCN(C(=O)c2cc(Sc3cnc(NC(C)=O)s3)c(C)cc2OC)C(C)(C)C1` [Compound 5], the half-inhibitory concentration (IC50) in assay [1] was less than 10 nM; in assay [2] it was less than 10 nM; in assay [3], 10 to 100 nM; in assay [4], 100 to 1000 nM. Further, in assay [2], the TXK/ITK was determined as 1.9721.

With `C=CC(=O)N1CCC2(C1)CN(C(=O)c1cc(Sc3cnc(NC(=O)c4ccsc4)s3)c(C)cc1OC)C2` [Compound 145, N-(5-((5-(6-acryloyl-2,6-diazaspiro[3.4]octane-2-carbonyl)-4-methoxy-2-methylphenyl)thio)thiazol-2-yl)thiophene-3-carboxamide], the IC50 was less than 10 nM in assay [1], less than 10 nM in assay [2], less than 10 nM in assay [3] and 10 to 100 nM in assay [4]. Further, the TXK/ITK in assay [2] amounted to 3.86.

For the compound `C=CC(=O)N1CCN(C(=O)c2cc(Sc3cnc(Nc4ncc(C)nc4C)s3)c(C)cc2C)CC1` [Compound 139], the concentration for half-maximal inhibition (IC50) in assay [1] was in the range of 10 to 100 nM; in assay [2], 10 to 100 nM; in assay [3] it was 100 to 1000 nM; in assay [4], 100 to 1000 nM. In addition, the TXK/ITK in assay [2] is on record as 4.65.

Regarding `C=CC(=O)N1CCCN(C(=O)c2cc(Sc3cnc(NC(=O)C4CCC4)s3)c(C)cc2OC)C[C@H]1C` [Compound 86], the IC50 was 10 to 100 nM in assay [1], 1000 to 10000 nM in assay [2], no less than 10000 nM in assay [3] and no less than 10000 nM in assay [4]. Also, the TXK/ITK in assay [2] worked out at 227.64.

Turning to `C=CC(=O)N1CCN(C(=O)c2cc(Sc3cnc(NC(=O)C4CC4)s3)c(C)cc2C)CC1` [Compound 73], the concentration for half-maximal inhibition (IC50) in assay [1] was less than 10 nM; in assay [2], 10 to 100 nM; in assay [3], 100 to 1000 nM; in assay [4], 100 to 1000 nM. For the same compound, the TXK/ITK in assay [2] is 3.2627.

Consider `C=CC(=O)N1CCCN(C(=O)c2cc(C)c(C)c(Sc3cnc(NC(=O)C4CC4)s3)c2)C[C@H]1C` [Compound 64], for which the IC50 was 100 to 1000 nM in assay [1], 1000 to 10000 nM in assay [2], no less than 10000 nM in assay [3] and no less than 10000 nM in assay [4]. Moreover, the TXK/ITK in assay [2] was determined as 11.944.

Consider `C=CC(=O)N1CCCN(C(=O)c2cc(Sc3cnc(NC(=O)C4CC4)s3)c(C)cc2C)C[C@H]1CC` [Compound 112], for which the IC50 in assay [1] is less than 10 nM; in assay [2], 100 to 1000 nM; in assay [3] it was 100 to 1000 nM; in assay [4], 1000 to 10000 nM. For the same compound, in assay [2], the TXK/ITK is 118.0.

For the compound `C=CC(=O)N1CCN(C(=O)c2cc(Sc3cnc(NC(=O)c4cnn(C)c4)s3)c(C)cc2OC)CC1` [Compound 91], the IC50 in assay [1] was less than 10 nM; in assay [2] it was 10 to 100 nM; in assay [3], 10 to 100 nM; in assay [4], 100 to 1000 nM. Besides, in assay [2], the TXK/ITK is recorded as 20.093.

As for `C=CC(=O)N1CCCN(C(=O)c2cc(CSc3cnc(NC(=O)C4CC4)s3)cc(C)c2C)CC1` [Compound 58], the IC50 in assay [1] is 1000 to 10000 nM; in assay [2], 1000 to 10000 nM; in assay [3], no less than 10000 nM; in assay [4], 1000 to 10000 nM. Besides, the TXK/ITK in assay [2] turned out to be 2.9749.

Regarding `C=CC(=O)N1CCN(C(=O)c2cc(Sc3cnc(NC(C)=O)s3)c(C)cc2OC)[C@@H](C)C1` [Compound 9], the half-maximal inhibitory concentration (IC50) in assay [1] is less than 10 nM; in assay [2], 10 to 100 nM; in assay [3] it was 100 to 1000 nM; in assay [4], 100 to 1000 nM. In assay [2], the TXK/ITK stood at 14.236.

In the case of `C=CC(=O)N1CCCN(C(=O)c2cc(Sc3cnc(NC(=O)c4cnsc4)s3)c(C)cc2OC)C[C@H]1CC` [Compound 121], the IC50 in assay [1] was less than 10 nM; in assay [2], 100 to 1000 nM; in assay [3] it was 100 to 1000 nM; in assay [4] it was 1000 to 10000 nM. Besides, the TXK/ITK in assay [2] turned out to be 146.1.

Turning to `C=CC(=O)N1[C@@H]2CC[C@H]1CN(C(=O)c1cc(Sc3cnc(NC(=O)C4CC4)s3)c(C)cc1OC)C2` [Compound 18], the IC50 was less than 10 nM in assay [1], less than 10 nM in assay [2], 10 to 100 nM in assay [3] and 10 to 100 nM in assay [4]. Moreover, the TXK/ITK in assay [2] was 2.8993.

In the case of `C=CC(=O)N1CCN(C(=O)c2cc(Sc3cnc(NC(=O)c4ccccn4)s3)c(C)cc2OC)CC1` [Compound 95], the IC50 in assay [1] fell in the range of 10 to 100 nM; in assay [2], 100 to 1000 nM; in assay [3] it was 100 to 1000 nM; in assay [4] it was 1000 to 10000 nM. In assay [2], the TXK/ITK worked out at 14.201.
